Assay results as given in ChEMBL document CHEMBL1131083, “Tipranavir (PNU-140690): a potent, orally bioavailable nonpeptidic HIV protease inhibitor of the 5,6-dihydro-4-hydroxy-2-pyrone sulfonamide class” (J Med Chem, 1998).

Key:
[1] = target: Human immunodeficiency virus type 1 protease (Human immunodeficiency virus 1, UniProt Q72874); assay: Inhibitory activity against HIV-1 protease in tandem assay.
[2] = target: Human immunodeficiency virus type 1 protease (Human immunodeficiency virus 1) (UniProt Q72874); assay: Inhibition of HIV-1 protease in a cell culture assay using HIV-1 IIIB infected H9 cells.; type: functional, cell-based
[3] = test system: H9; assay: Inhibitory activity against HIV-1 Protease in a cell culture assay using HIV-1 IIIB infected H9 cells at 3 uM; type: functional; settings: Homo sapiens
[4] = Inhibition of HIV-1 protease in a cell culture assay using HIV-1 IIIB infected H9 cells.
[5] = target: Human immunodeficiency virus type 1 protease (Human immunodeficiency virus 1) (UniProt Q72874); assay: Inhibitory activity against HIV-1 Protease in tandem assay; settings: concentration not given here
[6] = test system: H9; assay: Inhibitory activity against HIV-1 Protease in a cell culture assay using HIV-1 IIIB infected H9 cells at 1 uM; type: functional; settings: Homo sapiens

Ki [1] [nM] | IC90 [2] [nM] | SMILES | further results
2.3 | > 3000 | CCCC1(CCc2ccccc2)CC(=O)C(C(c2cccc(NS(=O)(=O)c3ccc([N+](=O)[O-])cn3)c2)C(C)(C)C)=C(O)O1 (stereo not given) | –
28 | – | CCC(C1=C(O)OC(COCCOCCOC)(COCCOCCOC)CC1=O)c1cccc(NS(=O)(=O)c2cn(C)cn2)c1 (stereo not given) | inhibition at 3 µM [3]: 0%
0.2 | 740 | CCCC1(CCc2ccccc2)CC(=O)C(C(c2cccc(NS(=O)(=O)c3ccc(N)cn3)c2)C(C)(C)C)=C(O)O1 (stereo not given) | –
6.1 | – | CCCC1(CCc2ccccc2)CC(=O)C(C(CC)c2cccc(NS(=O)(=O)c3ccc(F)cc3)c2)=C(O)O1 (stereo not given) | IC50 [4]: 1200 nM
0.71 | 1000 | CCCC1(CCc2ccccc2)CC(=O)C(C(c2cccc(NS(=O)(=O)c3cn(C)cn3)c2)C2CC2)=C(O)O1 (stereo not given) | –
3.1 | – | CCCC1(CCc2ccccc2)CC(=O)C(C(CC)c2cccc(NS(=O)(=O)c3cccc4cccnc34)c2)=C(O)O1 (stereo not given) | IC50 [4]: 1000 nM
4.3 | 990 | CCCC1(CCc2ccccc2)CC(=O)C(C(c2cccc(NS(=O)(=O)c3ccc(C(F)(F)F)cn3)c2)C(C)(C)C)=C(O)O1 (stereo not given) | –
1 | 2000 | CCC(C1=C(O)OC(CCc2ccccc2)(CCc2ccccc2)CC1=O)c1cccc(NS(=O)(=O)c2cn(C)cn2)c1 (stereo not given) | –
12 | 3000 | CCCC1(CCc2ccccc2)CC(=O)C(C(c2cccc(NS(=O)(=O)c3ccc(C#N)cc3)c2)C(C)(C)C)=C(O)O1 (stereo not given) | –
– | – | CCCC1(CCC)CC(=O)C(Cc2cccc(NS(=O)(=O)c3cn(C)cn3)c2)=C(O)O1 | inhibition [5]: 50%; inhibition at 3 µM [3]: 5%
– | – | CCC[C@@]1(CCc2ccccc2)CC(=O)C([C@@H](CC)c2cccc(NS(=O)(=O)c3ccc(C(F)(F)F)cn3)c2)=C(O)O1 (stereo in doubt; 39c) | IC50 [4]: 1700 nM
13 | – | CCCC1(CCc2ccccc2)CC(=O)C(Cc2cccc(NS(=O)(=O)c3cn(C)cn3)c2)=C(O)O1 (stereo not given) | inhibition at 1 µM [6]: 0%
23 | – | CCC(C1=C(O)OC(C23C[C@H]4C[C@@H](C2)C[C@@H](C3)C4)CC1=O)c1cccc(NS(=O)(=O)c2cn(C)cn2)c1 (stereo not given in full) | –
– | – | CCCC1(CCc2ccccc2)CC(=O)C(C(CC)c2cccc(NS(=O)(=O)c3ccccc3)c2)=C(O)O1 (stereo not given) | IC50 [4]: 1600 nM
0.52 | 3000 | CCCC1(CCC)CC(=O)C(C(c2cccc(NS(=O)(=O)c3cn(C)cn3)c2)C2CC2)=C(O)O1 (stereo not given) | –
1.8 | 2000 | CCCC1(CCC)CC(=O)C(C(CC)c2cccc(NS(=O)(=O)c3cn(C)cn3)c2)=C(O)O1 (stereo not given) | –

Ki [1] [nM] | IC90 [2] [nM] | SMILES | further results
0.87 | 1000 | CCCC1(CCC)CC(=O)C(C(c2cccc(NS(=O)(=O)c3cn(C)cn3)c2)C(C)(C)C)=C(O)O1 (stereo not given) | –
2.6 | < 3000 | CCCCCC1(CCCCC)CC(=O)C(C(CC)c2cccc(NS(=O)(=O)c3cn(C)cn3)c2)=C(O)O1 (stereo not given) | –
– | – | CCC[C@@]1(CCc2ccccc2)CC(O)=C([C@H](CC)c2cccc(NS(=O)(=O)c3ccc(C#N)cn3)c2)C(=O)O1 | IC50 [4]: 40 nM
0.018 | 840 | CCC[C@]1(CCc2ccccc2)CC(=O)C(C(CC)c2cccc(NS(=O)(=O)c3ccc(C(F)(F)F)cn3)c2)=C(O)O1 (stereo not given in full) | –
3 | 2000 | CCCC1(CCc2ccc(F)cc2)CC(=O)C(C(CC)c2cccc(NS(=O)(=O)c3cn(C)cn3)c2)=C(O)O1 (stereo not given) | –
0.1 | 1000 | CCC[C@@]1(CCc2ccccc2)CC(=O)C([C@@H](CC)c2cccc(NS(=O)(=O)c3ccc(C#N)cn3)c2)=C(O)O1 | –
– | – | CCC[C@@]1(CCc2ccccc2)CC(=O)C([C@@H](CC)c2cccc(NS(=O)(=O)c3ccc(C(F)(F)F)cn3)c2)=C(O)O1 (stereo in doubt; 39d) | IC50 [4]: 410 nM
0.1 | 470 | CCCC1(CCc2ccccc2)CC(=O)C(C(CC)c2cccc(NS(=O)(=O)c3ccc(C#N)cn3)c2)=C(O)O1 (stereo not given) | –
8.2 | – | CCCC1(CCc2ccccc2)CC(=O)C(C(CC)c2cccc(NS(=O)(=O)c3ccc(C#N)cc3)c2)=C(O)O1 (stereo not given) | IC50 [4]: 1100 nM
1.9 | 340 | CCCC1(CCc2ccccc2)CC(=O)C(C(c2cccc(NS(=O)(=O)c3ccc(C#N)cn3)c2)C(C)(C)C)=C(O)O1 (stereo not given) | –
> 1 | – | CCCC1(CCc2ccccc2)CC(=O)C(C(CC)c2cccc(NS(=O)(=O)CCC)c2)=C(O)O1 (stereo not given) | –
1.7 | 2900 | CCC(C1=C(O)OC(CCC2CC2)(CCC2CC2)CC1=O)c1cccc(NS(=O)(=O)c2cn(C)cn2)c1 (stereo not given) | –
3 | 7400 | CCC(C1=C(O)OC(CC(C)C)(CC(C)C)CC1=O)c1cccc(NS(=O)(=O)c2cn(C)cn2)c1 (stereo not given) | –
1.2 | 690 | CCCC1(CCc2ccccc2)CC(=O)C(C(c2cccc(NS(=O)(=O)c3cn(C)cn3)c2)C(C)(C)C)=C(O)O1 (stereo not given) | –
0.04 | 890 | CCC[C@]1(CCc2ccccc2)CC(=O)C([C@H](CC)c2cccc(NS(=O)(=O)c3ccc(C#N)cn3)c2)=C(O)O1 | –

SMILES | Ki [1] [nM] | IC90 [2] [nM] | further results
CCCC1(CCc2ccccc2)CC(=O)C(C(CC)c2cccc(NS(=O)(=O)c3cn(C)cn3)c2)=C(O)O1 (stereo not given) | 1.2 | – | –
CCC[C@@]1(CCc2ccccc2)CC(=O)C([C@H](CC)c2cccc(NS(=O)(=O)c3cn(C)cn3)c2)=C(O)O1 | 0.06 | 560 | –
CCC[C@@]1(CCc2ccccc2)CC(O)=C([C@H](CC)c2cccc(NS(=O)(=O)c3ccc(C(F)(F)F)cn3)c2)C(=O)O1 [TIPRANAVIR] | 0.008 | – | IC50 [4]: 30 nM
CCC[C@]1(CCc2ccccc2)CC(=O)C([C@H](CC)c2cccc(NS(=O)(=O)c3cn(C)cn3)c2)=C(O)O1 | 0.12 | 1000 | –
CCC[C@@]1(CCc2ccccc2)CC(=O)C([C@@H](CC)c2cccc(NS(=O)(=O)c3cn(C)cn3)c2)=C(O)O1 | 0.3 | > 1000 | –
